Bridge positions count the residues as written; N and C are the ends. Ends that are not written are not given here.
Experiments:
[1] = test system: cytotoxic T-cell mediated lympholysis of 51Cr labelled EL-4 (H-2b) targets; assay: 4 hour 51Cr release assay: inhibition of cytotoxic T-cell mediated lympholysis by peptide; type: cell-based, mouse (AKR/J anti C57BL/6 effectors); details: for inhibition of specific lysis of targets: peptide 100, 10 or 1 μg/ml pre-incubated 30 minutes at 37° C. with effectors, Effector:Target 30:1, 10:1, 3:1, 1:1, 4 hour lysis
Protocol: The effect of peptide on cytotoxicity was measured in a 4 hour ^51 Cr release assay. H-2^b specific effectors were generated in a AKR/J (H-2^k) anti C57BL/6 (H-2^b) mixed lymphocyte reaction. The stimulators (C57BL/6 spleen cells) are gamma-irradiated at 1500 RADS. The targets were obtained from a tumor cell line, EL-4 (H-2^b), that were labelled with Na^51 CrO4. On Day 5 the effectors are harvested and counted. The peptide, at concentrations of 100 μg/ml, 10 μg/ml or 1 μg/ml, was first incubated for 30 minutes at 37° C. with effectors of varying numbers and then ^51 Cr labelled targets were added in a 4 hour specific lysis experiment. The target cell lysis was assessed at Effector:Target ratios of 30:1, 10:1, 3:1, and 1:1. Toxic effects of the peptide was determined by the % specific lysis above background that was obtained by incubating just peptide and labelled targets. No toxic effects were observed. Also, anti-CD8 monoclonal antibody that blocks the interaction resulting in lowered lympholysis is used in the assay.

[2] = test system: activation of CTL in AKR/J anti C57BL/6 mixed lymphocyte reaction; assay: Inhibition of activation/generation of cytotoxic T-cells: mixed lymphocyte reaction in presence of peptide, then 51Cr release; type: cell-based, mouse; details: peptide present during MLR; effectors washed on Day-6; 4-hour lysis of EL-4 targets
Protocol: The effect of the peptide on the activation of CTL capable of lympholysis was determined by generating effector T-cells in AKR/J anti C57BL/6 mixed lymphocyte reaction in the presence of peptide. On Day-6, effectors are washed and then ^51 Cr-labelled EL-4 targets were added in a 4-hour specific lysis experiment.

[3] = test system: allogeneic skin graft rejection; assay: Murine skin transplantation (tail skin allograft onto bm1 recipients); type: in vivo, mouse
From the text: Tail skin from C57BL/7 [H-2b] donor is grafted onto the ventral side of bm1 recipient tails. The donors are asphyxiated and 2×4 mm tail pieces are cut. These grafts are placed in 0.1% BSA in PBS on ice. Recipients are anesthetized in isoflurane chamber. While still anesthetized, grafting beds of 10×10 mm on the ventral side of the tail are cut. Two grafting beds per mouse are made, one for syngeneic graft and the other for the allogeneic graft. The grafts are turned 180' and placed in the beds such that the hair of the graft grows in the opposite direction. The grafts are trimmed if necessary such that they fit in the beds without skin hanging over the edge of the beds. A blunt glass tube is placed over the grafts and taped into place. This glass is removed on day 2 post-transplantation.
Five animals per treatment group are used and treatment is prior to transplantation. The untreated group is injected into the tail vein with 200 μl of PBS on Day 0.
Grafts are observed every other day for signs of rejection. […] Grafts are considered rejected due to mechanical failure if the grafts are rejected by Day 3.

[4] = test system: GVHD, primarily CD8+ based; assay: Murine model of GVHD (B10.BR ATBM plus CD8+ T-cells into lethally irradiated host); type: in vivo, mouse; details: 0.5 mgs peptide on Day 0, 3 and 6; FIG. 2
Protocol: Donor bone marrow is harvested from tibias and femurs of B10.BR mice. T-cells are eliminated from the bone marrow by treatment with anti-Thy1.2 and complement. Complement treatment for 2 cycles at 37° C. for 1 hour each results in more than 90% pure population of bone marrow cells. 10×10^6 T-cell depleted bone marrow [ATBM] cells are injected into the tail vein. Donor splenocytes undergo red blood cell lysis followed by B cell and CD4+ T-cells are depletion using anti-J1J and anti-RL147 antibodies, respectively. This purified CD8+ T-cell population from donors (5×10^6 cells) is injected into the tail vein of the animal. The host is lethally irradiated at 850 cGy approximately 6 hours prior to bone marrow transplantation. Characteristic features of murine acute GVHD include weight loss, diarrhea and loss of hair and death. Body weights were monitored before and after treatment. The treated mice were housed in sterile conditions and observed daily for acute GVHD-like reactions. Lethally irradiated mice reconstituted with ATBM only survive without signs of disease. Mice are treated with 0.5 mgs of SC2 peptide on Day 0, 3 and 6.

Substance: C-D-E-K-L-N-S-S-K-L-C (CDEKLNSSKLC; not fully specified; printed as C-D-E-K-L-N-S-S-K-L-C; cysteine pairing not given here) [SC11]
- inhibition of specific lysis of targets [1]: does not
- inhibition of specific lysis of targets (effectors generated in presence of peptide) [2]: show inhibition of specific lysis of targets in a concentration dependent manner

Substance: C-S-S-H-N-K-P-C (CSSHNKPC) [SC2]
- inhibition of specific lysis of targets [1]: inhibits specific lysis of targets in a concentration dependent manner
- inhibition of specific lysis of targets (effectors generated in presence of peptide) [2]: show inhibition of specific lysis of targets in a concentration dependent manner
- skin graft survival ([3]; 0.5 mgs/200 μl PBS in the tail vein on Day 0, FIG. 1): consistently prolonged skin graft survival with biological significance
- onset of GVHD [4]: delays the onset of GVHD

Substance: CLSQNKPC (disulfide 1-8 (inferred)) [Wu-1, cyclic peptide consisting of human CD8 amino acids 52-57 with amino terminal and carboxy terminal cysteines]
- inhibition of killing ([1]; 51[Cr]-release assay as described in Example 2, FIG. 3): approximately 50%

Substance: Wu-2: linear peptide consisting of human CD8 amino acids 37-47 (CQPRGAAASPC)
- rejection of skin grafts ([3]; skin transplantation assay of Example 4, FIG. 4): significant delay in rejection

From patent US6180600A, “CD8 antagonists” (Thomas Jefferson University, priority 1997, dated 2001)
